# According to patent publication US5086054A, “Novel arylcycloalkanepolyalkylamines” (SRI International, priority 1990, dated 1992):
# Entries after “also recorded” stand apart in the source; their conditions may differ. Like-named read-outs stand apart in the source and are kept apart here.
# Columns and labels:
# PCP RECEPTOR = experiment: PCP receptor binding assay ([3H]-TCP displacement, brain membranes); design: species or system guinea-pig (male Hartley); details: for IC50: read-out: PCP RECEPTOR IC50
# Experimental: (§1) This example illustrates testing of compounds in receptor binding assays.
# (§2) Frozen brains from male Hartley guinea-pigs were obtained from Pel-Freeze (Rogers, Arkansas).
# (§3) The brains plus cerebella were homogenized in 10 volumes (v/w) of 0.1M, pH 7.4, ice-cold Tris-HCl buffer with a Brinkmann polytron at setting 4 for 20 seconds. The homogenates were centrifuged at 20,000×g for 20 minutes at 4° C. The pellets were suspended in 10 volumes of ice-cold water and, after sitting on ice for 10 minutes, were centrifuged 30 minutes at 20,000×g at 4° C. The resulting pellets were resuspended in the above Tris buffer in ratio 1:100 (w/v) for σ receptor assays or in 5 mM Tris-HCl having pH 7.4, for PCP receptor assays. The final suspension was homogenized with a dounce glass-glass tissue grinder Wheaton "200", at small clearance (B), with three strokes before use. Two milliter aliquots of the brain membrane preparation, containing 1.7 mg of protein, were incubated in quadruplicate for one hour at 23° C. with competing mixture of ligand and radioligand. For σ receptors, [^3 H]-d-SKF-10,047, 2 nM was used. For PCP receptors, [^3 H] TCP [^3 H]-1-[1-(2-thienyl)cyclohexyl]piperidine), 1 nM was used. The nonspecific bindings were defined by 0.1 mM d-SKF-10,047 and 0.1 mM phencyclidine respectively for σ and PCP receptors. After incubation, free ligand was separated from bound ligand by rapid filtration through Whatman GF/C filters. The filters had been soaked before use in isoamyl alcohol-saturated water to prevent nonspecific [^3 H]-d-SKF-10,047 binding to the filter. In the PCP receptor assay, the filter was soaked in 0.5% polyethylenimine to reduce the filter binding of [^3 H]-TCP. After filtration, the trapped tissue was washed three times with 4 ml aliquots of 0.1 M ice-cold Tris buffer at pH 7.4 for σ receptors and 5 mM, ice-cold Tris buffer pH 7.4 for PCP receptors. The filters were transferred to 5 ml of liquid scintillation fluid and the retained radioactivity was measured by liquid scintillation spectrometry.
# Programs in Biomed. 17:107 (1983)].
# SIGMA RECEPTOR = target: T1, SIGMA RECEPTOR (Cavia porcellus, UniProt Q60492); experiment: Sigma receptor binding assay ([3H]-d-SKF-10,047 displacement, brain membranes); design: species or system guinea-pig (male Hartley)
# T1 construct: Two milliter aliquots of the brain membrane preparation, containing 1.7 mg of protein; tissue Pel-Freeze (Rogers, Arkansas); host or cells: guinea-pig brains plus cerebella, membranes
# Experimental: as §1, §2, §3
# [1] = Table 2, aryl ring substituents
# [2] = Table 2, aryl ring substituents, read-out: SIGMA RECEPTOR IC50
# [3] = Table 1, mean ± error (n), read-out: SIGMA RECEPTOR IC50
# [4] = Table 1, slope of dose response curve
# T1 sequence (Q60492 whole entry): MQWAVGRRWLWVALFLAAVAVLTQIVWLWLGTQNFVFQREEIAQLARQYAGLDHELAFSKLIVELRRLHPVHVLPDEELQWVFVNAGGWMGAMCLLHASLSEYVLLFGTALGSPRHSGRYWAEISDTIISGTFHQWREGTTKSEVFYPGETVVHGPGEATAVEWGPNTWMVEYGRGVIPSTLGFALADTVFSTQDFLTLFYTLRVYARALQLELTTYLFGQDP
SMILES,IC50 (PCP RECEPTOR; [1]) [nM],potency at σ receptors (in words) (SIGMA RECEPTOR),SIGMA RECEPTOR SLOPE (SIGMA RECEPTOR; Table 2),IC50 (SIGMA RECEPTOR; [2]) [nM],potency at PCP receptors (in words) (PCP RECEPTOR),"IC50 (PCP RECEPTOR; Table 1, mean ± error (n)) [nM]",SIGMA RECEPTOR SLOPE (SIGMA RECEPTOR; [4]),further results
O=[N+]([O-])c1ccc(C2(CN3CCCCC3)CCCCC2)cc1 [Compound 24],> 25000,slightly lower σ receptor potencies,0.47 ± 0.06,249,–,–,–,selectivity for σ receptors (in words) (SIGMA RECEPTOR): substantially increases selectivity for σ receptors
c1ccc(C2(CN3CCCC3)CCCCC2)cc1 [Compound 6],–,increased potency for σ receptors,0.88 ± 0.07,4750,already inactive at PCP receptors,1270,0.88 ± 0.07,IC50 (SIGMA RECEPTOR; [3]): 4740 nM
c1ccc(C2(CN3CCOCC3)CCCCC2)cc1 [Compound 11],> 25000,increased potency for σ receptors,0.60 ± 0.03,–,inactive in the PCP receptor assay,> 25000,0.60 ± 0.03,IC50 (SIGMA RECEPTOR; [3]): 710 nM
Clc1cccc(C2(CN3CCCC3)CCCCC2)c1 [Compound 32],867 ± 9,–,0.73 ± 0.16,248,–,–,–,–
COc1cccc(C2(CN3CCCCC3)CCCCC2)c1 [Compound 26],> 25000,slightly lower σ receptor potencies,0.74 ± 0.07,326,–,–,–,selectivity for σ receptors (in words) (SIGMA RECEPTOR): substantially increases selectivity for σ receptors
Oc1cccc(C2(CN3CCCC3)CCCCC2)c1 [Compound 29],1320,only slight effect on σ receptor potency,0.80 ± 0.07,1080,–,–,–,selectivity for σ receptors (in words) (SIGMA RECEPTOR): selectivity for σ receptors was poor
COc1cccc(C2(CN3CCCC3)CCCCC2)c1 [Compound 33],552 ± 20,–,0.73 ± 0.08,1190,–,–,–,–
O=[N+]([O-])c1ccc(C2(CN3CCCC3)CCCCC2)cc1 [Compound 31],> 25000,somewhat potent,0.65 ± 0.05,282,inactive at PCP sites,–,–,selectivity for σ receptors (in words) (SIGMA RECEPTOR): very selective for σ receptors
COc1ccc(C2(CN3CCOCC3)CCCCC2)cc1OC [Compound 38],> 25000,essentially inactive in both σ and PCP binding assays,–,> 25000,essentially inactive in both σ and PCP binding assays,–,–,–
c1ccc(C2(CN3CCCCC3)CCCCC2)cc1 [Compound 2],1830,increased the potency of the compound in the σ receptor assay,0.66 ± 0.1,–,reduced the potency in the PCP receptor assay,1830,0.66 ± 0.1,"IC50 (PCP RECEPTOR; Table 3, cycloalkyl ring size): 1830 nM; decreased potency for PCP receptors (PCP RECEPTOR; relative to PCP (1)): approximately 40 times; SIGMA RECEPTOR SLOPE (SIGMA RECEPTOR; Table 3): 0.66 ± 0.01; IC50 (SIGMA RECEPTOR; Table 3, cycloalkyl ring size, read-out: SIGMA RECEPTOR IC50): 104 nM; increased potency for σ receptors (SIGMA RECEPTOR; relative to PCP (1)): about 80 times"
C[N+](C)(C)CCOC(=O)C1(c2ccccc2)CCCCC1 [Compound 20],–,–,–,–,inactive in the PCP assay; also recorded: did not increase potency for PCP receptors,> 25000,1.22 ± 0.15,IC50 (SIGMA RECEPTOR; [3]): 12300 nM
CN(C)CC1(c2cccc(O)c2)CCCCC1 [Compound 40],> 25000,–,0.61 ± 0.01,10100,–,–,–,–
"CN(C)C1(c2ccccc2)CCCCC1 [Compound 17, N,N-dimethyl-1-phenylcyclohexylamine, reference compound]",–,–,–,–,–,242 ± 8,0.53 ± 0.05,"IC50 (SIGMA RECEPTOR; SIGMA RECEPTOR IC50, Table 1, mean ± error (n)): 1950 nM"
CCN(CC)CC1(c2ccc([N+](=O)[O-])cc2)CCCCC1 [Compound 39],> 25000,–,0.44 ± 0.01,304,–,–,–,–
